Series [1] concerns keratinocytes. Briefly: cis-parinaric acid (PnA) assay of AMVN-induced phospholipid oxidation in live keratinocytes. The series is classed as cell-based, human. The procedure:
Comparison of the Antioxidant Potency of ST-630 with that of Calcitriol and Alpha-Tocopherol in Live Keratinocytes Using the Cis-parinaric Acid (PnA) assay […].
Keratinocytes were incubated in the presence of a complex of PnA with human serum albumin (PnA-HSA) for up to […] to incorporate PnA into cellular phospholipids. […] The incorporation of PnA in the various phospholipids was differential and the amount of PnA incorporated was in the following order: PC>PEA>PI>PS>SPH>DPG. The constituent phospholipids were separated from the total lipid extract by HPLC. Major fluorescence peaks were identified using authentic phospholipids standards including DPG, PI, PEA, PS, PC and SPH.
To determine the effects of ST-630 on keratinocytes subjected to oxidative stress cell suspensions labeled with PnA were incubated with or without ST-630 (5-500 nM) in the dark at 37° C. for 1 hr in the presence of […] AMVN. Based on the known rate constant of AMVN decomposition under the experimental conditions employed (Niki, 1990), at 0.5 mM it can be estimated that 2.4 nanomoles (nmoles) of peroxyl radicals are generated per hour at 37° C. in each incubation containing 10^6 cells. Incubation of keratinocytes with AMVN for 1 hr induced significant oxidation of all the detected phospholipids.

Series [2] deals with cultured human keratinocytes. The series is described as follows: 3H-thymidine incorporation into keratinocyte DNA (proliferation). Conditions: 42 h and 66 h after initial dosing with 10^-8 M. The series is classed as cell-based. The procedure:
Two experimental approaches were performed to assess the effect of ST-630 on the proliferation of cultured human keratinocytes. The first one was the ^3H-thymidine incorporation experiments that involved the use of a radiolabeled nucleotide which is specifically found in newly synthesized DNA molecules only. The second approach used in this study was the basal cell count. Although it is tedious, the second method is a more definitive way to determine cellular proliferation. Our results clearly establish the potency and the long-lasting effects of ST-630 in inhibiting cellular proliferation as determined by ^3H-thymidine and basal cell count.
On the technique in general: Dividing cells build labelled thymidine or BrdU into new DNA.

The subject of series [3] is cultured keratinocytes. Conditions: cited from earlier work.
Series [4] concerns human neutrophils (PMNLs). Briefly: oxidative burst (superoxide production, cytochrome c reduction) in human neutrophils. It is filed as cell-based. The source says: This example provides studies of oxidative burst and chemotaxis in human neutrophils. Oxidative (respiratory) burst in polymorphonuclear nuetrophils (PMN) is a major mechanism of defense against bacterial and/or viral pathogens. Oxidative burst is a complex process resulting in the generation by PMN of a huge amount of oxygen free radicals (superoxide and hydroxyl radicals) and chemically reactive substances—hydrogen peroxide and hypochlorite. The mechanism of cell activation involves such steps as increase of intracellular Ca^2+ concentration upon the interaction of activator, increasing the activity of protein kinase C, activation of NADPH oxidase with subsequent generation of superoxide radicals and hydrogen peroxide in the phagosomes and in the surrounding area, releasing and activation of myeloperoxidase and production of hypochlorite (HOCL).
The respiratory burst in PMNLs (isolated from fresh heparinized whole blood by dextran sedimentation) was initiated by the addition of N-formylmethionyl-leucyl-phenylalanine-methylester, FLPM (10^−7M), phorbol12,13-miristate, acetate, PMA (0.01 μg/ml) and opsonized zimozan (1.0 mg/ml). Superoxide production was assayed by the superoxide dismutase-22 inhibitable reduction of cytochrome c. […]

In series [5] the test system is human neutrophils. The series is described as follows: chemotaxis in human neutrophils, multiwell chamber with FLPM. It is filed as cell-based. Conditions: higher concentrations of FLPM as chemotactic factor. The source says:
For chemotaxis assay, chemotactic solution (medium 199 containing 0.5% BSA and FLPM) and multiwell chamber were used. The numbers of migrated neutrophils for different concentrations of FLPM (as a chemotactic factor) were within the usually observable range (see Table 4 in the Appendix). […] Despite this, the data are consistent with the effects of these compounds on superoxide release. Both ST-630 and calcitriol appear to be inhibitory when higher concentrations of FLPM were used.

Series [6] relates to Propionibacterium acnes. The series is described as follows: antibacterial disc inhibition zone test. Conditions: 6 mm filter paper discs, 48 hr at 36° C. It is filed as cell-based. The procedure: Propionibacterium acnes, the target of inflammation in acne, was tested for its sensitivity to ST-630 and calcitriol using the inhibition method standardly employed for assessment of antibiotic efficiency. The strain (lyophilized) P. acnes (batch # 96-09SV) was received from the US type culture collection (Rockville, Md.). It was revitalized in 0.5 ml freshly boiled (10 min) reinforced Clostridial medium. ST-630 or calcitriol dissolved in 5.0 μl DMSO were applied onto the top of sterilized discs made of filter paper (6 mm). Erythromycin (15 μg) and DMSO (5.0 μl) were used as controls (positive and negative, respectively). The plates were incubated for 48 hr at 36° C. and the diameter of the inhibition zone was measured. […] The antibacterial activity of ST-630 at concentration 12.8 μg was about 2.7-fold lower than that of 15 μg of erythromycin. We conclude that ST-630 (but not calcitriol) exerts a significant inhibitory antibacterial activity towards P. acnes.

Series [7] has as its system human keratinocyte cells. Briefly: AMVN-induced hypodiploidy (apoptosis) in keratinocytes, flow cytometric analysis. The series is classed as cell-based. From the text:
Nucleus/DNA of cells treated with chemical or physical agents undergo changes primarily by the activation of the nucleases, before they lose the membrane integrity. Such changes are due to the loss of DNA or fragmentation of the nucleus into apoptotic bodies. Flow cytomeric analysis of a population of cells can reveal the appearance of a hypodiploid population and changes in the stages of the cell cycle.
AMVN induces changes in the cell cycle pattern and it can be modified either by calcitriol or ST-630. […] AMVN-derived peroxyl radicals primarily cause damage to the DNA and repair of DNA is accomplished during the G1 or G2 block. When keratinocytes were treated with various concentrations of ST-630 or calcitriol, and subsequently exposed to AMVN there was a considerable reduction in the level of hypodiploid cells. This effect was concentration-dependent. […] The highest concentration of calcitriol used, i.e. 500 nM reduced the hypodiploidy by 60%. […] 10 nM of ST-630 blocked the hypodiploidy by 60%.
In general terms: Flow cytometry measures light scatter and fluorescence of single cells or particles in a stream.

For `C=C1/C(=C\C=C2/CCC[C@]3(C)[C@@H]([C@H](C)CCCC(C)(C)O)CC[C@@H]23)C[C@@H](O)C[C@@H]1O` [calcitriol, reference compound], in series [1] (PnA-labeled keratinocytes, 0.5 mM AMVN, 1 hr, 37° C.), the “concentration giving maximum antioxidant effectiveness/protection against AMVN-induced oxidation” value is 25 to 50 nM. Also, the “concentration-dependency of the protective effect” value in series [1] (PnA-labeled keratinocytes, AMVN) is “two-phase protection pattern”. Moreover, the “inhibitory (antiproliferative) activity with time” value in series [2] is on record as “diminished with time”. Further, the “metabolism in cultured keratinocytes” value in series [3] is reported as “rapidly metabolized”. For the same compound, the “superoxide release with known stimulants (FLPM, PMA, opsonized zymosan)” value in series [4] is listed as “act to prime for supertoxide release”. Besides, the effect on chemotaxis entry in series [5] is given as “inhibitory”. Also, in series [6], the “antibacterial activity (inhibition zone)” value was “Neither DMSO nor calcitriol exerted any antibacterial activity”. Besides, the “reduction of AMVN-induced hypodiploidy” value in series [7] (10 nM) was 40%; in series [7] (500 nM) it was 60%. Besides, the “effect on cell cycle” value in series [7] (10 nM, then AMVN) was “blocked the cells at the G2/M phase”.
As for `Cc1c(C)c2c(c(C)c1O)CC[C@@](C)(CCC[C@H](C)CCC[C@H](C)CCCC(C)C)O2` [vitamin E, Alpha-Tocopherol, reference compound], the “antioxidant action compared with the other compounds” value in series [1] (concentrations 250 and 500 nm) is reported as “comparable to that of ST-630”.
